ChEMBL document CHEMBL4665863 (Bioorg Med Chem, 2020)
Converted amounts (≈) assume the structure as drawn.

Experiments:
Type in all cases: functional
[1] = tested on: Staphylococcus aureus; test: Antibacterial activity against Staphylococcus aureus ATCC25923 incubated for 24 hrs by CLSI-based broth microdilution method
[2] = tested on: Staphylococcus aureus; test: Antibacterial activity against methicillin-resistant Staphylococcus aureus ATCC43300 incubated for 24 hrs by CLSI-based broth microdilution method
[3] = tested on: Pseudomonas aeruginosa; test: Antibacterial activity against Pseudomonas aeruginosa ATCC27853 incubated for 24 hrs by CLSI-based broth microdilution method
[4] = tested on: Bacillus pumilus; test: Antibacterial activity against Bacillus pumilus CMCC63202 incubated for 24 hrs by CLSI-based broth microdilution method
[5] = tested on: Staphylococcus aureus; test: Antibacterial activity against penicillin-resistant Staphylococcus aureus incubated for 24 hrs by CLSI-based broth microdilution method
[6] = tested on: Bacillus subtilis; test: Antibacterial activity against Bacillus subtilis ATCC9372 incubated for 24 hrs by CLSI-based broth microdilution method
[7] = tested on: Escherichia coli; test: Antibacterial activity against Escherichia coli ATCC25922 incubated for 24 hrs by CLSI-based broth microdilution method; details: ATCC 25922

Structure (SMILES)	MIC [1] [µg/mL]	MIC [2] [µg/mL]	MIC [3] [µg/mL]	MIC [4] [µg/mL]	MIC [5] [µg/mL]	MIC [6] [µg/mL]	MIC [7] [µg/mL]
NC(=O)c1c(F)ccc(OCC2CC(c3ccc4c(c3)OCO4)=NO2)c1F (configuration not stated)	64 (≈ 170 µM)	64 (≈ 170 µM)	> 64	16 (≈ 42.5 µM)	64 (≈ 170 µM)	16 (≈ 42.5 µM)	> 64
CCc1ccc(C2=NOC(COc3ccc(F)c(C(N)=O)c3F)C2)cc1 (configuration not stated)	8 (≈ 22.2 µM)	8 (≈ 22.2 µM)	> 64	2 (≈ 5.55 µM)	16 (≈ 44.4 µM)	0.5 (≈ 1.39 µM)	> 64
CCCCCc1ccc(C2=NOC(COc3ccc(F)c(C(N)=O)c3F)C2)cc1 (configuration not stated)	> 64	> 64	> 64	≤ 0.125	> 64	0.5 (≈ 1.24 µM)	> 64
NC(=O)c1c(F)ccc(OCC2=NOC(c3cccc(Cl)c3)C2)c1F (configuration not stated)	> 64	> 64	> 64	> 64	> 64	64 (≈ 175 µM)	> 64
Cc1cccc(C2CC(COc3ccc(F)c(C(N)=O)c3F)=NO2)c1 (configuration not stated)	> 64	> 64	> 64	> 64	> 64	64 (≈ 185 µM)	> 64
NC(=O)c1c(F)ccc(OCC2CC(c3ccc(Br)cc3)=NO2)c1F (configuration not stated)	32 (≈ 77.8 µM)	32 (≈ 77.8 µM)	> 64	4 (≈ 9.73 µM)	32 (≈ 77.8 µM)	2 (≈ 4.86 µM)	> 64
COc1ccccc1C1=NOC(COc2ccc(F)c(C(N)=O)c2F)C1 (configuration not stated)	> 64	> 64	> 64	> 64	> 64	> 64	> 64
CCOc1ccccc1C1CC(COc2ccc(F)c(C(N)=O)c2F)=NO1 (configuration not stated)	> 64	> 64	> 64	> 64	> 64	> 64	> 64
CCCOc1ccc(C2=NOC(COc3ccc(F)c(C(N)=O)c3F)C2)cc1 (configuration not stated)	> 64	> 64	> 64	4 (≈ 10.2 µM)	> 64	4 (≈ 10.2 µM)	> 64
NC(=O)c1c(F)ccc(OCC2CC(c3ccc(Cl)cc3Cl)=NO2)c1F (configuration not stated)	16 (≈ 39.9 µM)	32 (≈ 79.8 µM)	> 64	2 (≈ 4.99 µM)	32 (≈ 79.8 µM)	4 (≈ 9.97 µM)	> 64
NC(=O)c1c(F)ccc(OCC2=NOC(c3ccccc3Cl)C2)c1F (configuration not stated)	> 64	> 64	> 64	32 (≈ 87.3 µM)	> 64	16 (≈ 43.6 µM)	> 64
NC(=O)c1c(F)ccc(OCC2CC(c3ccc(Cl)c(Cl)c3)=NO2)c1F (configuration not stated)	> 64	> 64	> 64	> 64	> 64	2 (≈ 4.99 µM)	> 64
CCCOc1cccc(C2=NOC(COc3ccc(F)c(C(N)=O)c3F)C2)c1 (configuration not stated)	16 (≈ 41 µM)	16 (≈ 41 µM)	> 64	2 (≈ 5.12 µM)	32 (≈ 82 µM)	4 (≈ 10.2 µM)	> 64
Cc1ccc(C2CC(COc3ccc(F)c(C(N)=O)c3F)=NO2)cc1 (configuration not stated)	> 64	> 64	> 64	64 (≈ 185 µM)	> 64	16 (≈ 46.2 µM)	> 64
CC(C)c1ccc(C2CC(COc3ccc(F)c(C(N)=O)c3F)=NO2)cc1 (configuration not stated)	64 (≈ 171 µM)	64 (≈ 171 µM)	> 64	8 (≈ 21.4 µM)	> 64	4 (≈ 10.7 µM)	> 64
CCOc1cccc(C2=NOC(COc3ccc(F)c(C(N)=O)c3F)C2)c1 (configuration not stated)	32 (≈ 85 µM)	32 (≈ 85 µM)	> 64	8 (≈ 21.3 µM)	32 (≈ 85 µM)	4 (≈ 10.6 µM)	> 64

Structure (SMILES)	MIC [1] [µg/mL]	MIC [2] [µg/mL]	MIC [3] [µg/mL]	MIC [4] [µg/mL]	MIC [5] [µg/mL]	MIC [6] [µg/mL]	MIC [7] [µg/mL]
NC(=O)c1c(F)ccc(OCC2CC(c3ccc(C4CCCCC4)cc3)=NO2)c1F (configuration not stated)	> 64	> 64	> 64	> 64	> 64	> 64	> 64
NC(=O)c1c(F)ccc(OCC2=NOC(c3ccc(Cl)c(Cl)c3)C2)c1F (configuration not stated)	> 64	> 64	> 64	> 64	> 64	16 (≈ 39.9 µM)	> 64
NC(=O)c1c(F)ccc(OCC2CC(c3ccccc3Cl)=NO2)c1F (configuration not stated)	> 64	> 64	> 64	64 (≈ 175 µM)	> 64	16 (≈ 43.6 µM)	> 64
COc1cccc(C2=NOC(COc3ccc(F)c(C(N)=O)c3F)C2)c1 (configuration not stated)	> 64	> 64	> 64	32 (≈ 88.3 µM)	> 64	8 (≈ 22.1 µM)	> 64
CCCOc1ccc(C2CC(COc3ccc(F)c(C(N)=O)c3F)=NO2)cc1 (configuration not stated)	> 64	64 (≈ 164 µM)	> 64	32 (≈ 82 µM)	> 64	8 (≈ 20.5 µM)	> 64
COc1cccc(C2CC(COc3ccc(F)c(C(N)=O)c3F)=NO2)c1 (configuration not stated)	> 64	> 64	> 64	> 64	> 64	> 64	> 64
NC(=O)c1c(F)ccc(OCC2CC(c3cccc(Cl)c3)=NO2)c1F (configuration not stated)	16 (≈ 43.6 µM)	32 (≈ 87.3 µM)	> 64	8 (≈ 21.8 µM)	32 (≈ 87.3 µM)	2 (≈ 5.45 µM)	> 64
Cc1cccc(C2=NOC(COc3ccc(F)c(C(N)=O)c3F)C2)c1 (configuration not stated)	32 (≈ 92.4 µM)	16 (≈ 46.2 µM)	> 64	8 (≈ 23.1 µM)	64 (≈ 185 µM)	16 (≈ 46.2 µM)	> 64
CCOc1ccc(C2=NOC(COc3ccc(F)c(C(N)=O)c3F)C2)cc1 (configuration not stated)	64 (≈ 170 µM)	64 (≈ 170 µM)	> 64	16 (≈ 42.5 µM)	> 64	4 (≈ 10.6 µM)	> 64
COc1ccc(C2=NOC(COc3ccc(F)c(C(N)=O)c3F)C2)cc1 (configuration not stated)	> 64	> 64	> 64	32 (≈ 88.3 µM)	> 64	8 (≈ 22.1 µM)	> 64
CC(C)(C)c1ccc(C2CC(COc3ccc(F)c(C(N)=O)c3F)=NO2)cc1 (configuration not stated)	64 (≈ 165 µM)	32 (≈ 82.4 µM)	> 64	4 (≈ 10.3 µM)	32 (≈ 82.4 µM)	2 (≈ 5.15 µM)	> 64
NC(=O)c1c(F)ccc(OCC2=NOC(c3ccc(Cl)cc3)C2)c1F (configuration not stated)	64 (≈ 175 µM)	32 (≈ 87.3 µM)	> 64	16 (≈ 43.6 µM)	64 (≈ 175 µM)	4 (≈ 10.9 µM)	> 64
NC(=O)c1c(F)ccc(OCC2CC(c3ccc(F)cc3)=NO2)c1F (configuration not stated)	64 (≈ 183 µM)	64 (≈ 183 µM)	> 64	32 (≈ 91.4 µM)	64 (≈ 183 µM)	8 (≈ 22.8 µM)	> 64
NC(=O)c1c(F)ccc(OCC2CC(c3ccc(Cl)cc3)=NO2)c1F (configuration not stated)	32 (≈ 87.3 µM)	32 (≈ 87.3 µM)	> 64	8 (≈ 21.8 µM)	32 (≈ 87.3 µM)	8 (≈ 21.8 µM)	> 64
N#Cc1ccc(C2=NOC(COc3ccc(F)c(C(N)=O)c3F)C2)cc1 (configuration not stated)	> 64	> 64	> 64	> 64	> 64	32 (≈ 89.6 µM)	> 64
